Series [1] concerns PD1-ss+10aa/Gaussia Luciferase. Put plainly: Dox-Induced PD1-ss-Gluc Assay. The format is cell-based. The note with it: 24 hr Dox induction, 293FRT/TO cells, read-out: 24 hr Dox Inducible PD1ssGluc 293FRT/TO: Mean IC50. In short, it runs like this:
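Flp-In 293 T-REx, stable line; Tet-regulated PD1-ss+10aa fused to Gaussia luciferase; plated day prior; cpd + doxycycline in DMSO/media; 37 °C, 5% CO2.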

The subject of series [2] is TNFα-FL/Gaussia Luciferase. As to the kind of experiment: Dox Induced TNFα-FL-Gluc Assay. Type of series: cell-based. The note with it: for IC50: 24 hr Dox induction, 293FRT/TO cells, read-out: 24 hr Dox Inducible TNFaFLGluc 293FRT/TO: Mean IC50; for 24 hr Dox Inducible TNFaFLGluc 293FRT/TO: TNF/PD1: ratio of TNFaFLGluc IC50 to PD1ssGluc IC50. An excerpt: (§1) Flp-In 293 T-REx™ cells were transfected with pcDNA™5/FRT/TO plasmid inserted with cDNA encoding Gaussia Luciferase fused to the 3′ end of cDNA encoding full length TNFα (amino acids 1-233). Transfected cells were selected for resistance to the selectable markers Hygromycin and Blasticidin to create a stable cell line that contained the TNFα-FL/Gaussia Luciferase cDNA insert whose expression was regulated under the T-REx™ system. The day before assay, cells were trypsinized and plated in 384-well tissue culture plates. The next day, compound dilutions in DMSO/media containing doxycycline were added to the wells and incubated at 37° C., 5% CO2.
(§2) For chemical structures that include one or more stereoisomers, but are illustrated without indicating stereochemistry, the assay data refers to a mixture of stereoisomers.

In series [3] the test system is HER3-ss+4aa/Gaussia Luciferase. Put plainly: Dox-Induced Her3-ss-Gluc Assay. The format is cell-based. As to conditions: 24 hr Dox induction, 293FRT/TO cells, read-out: 24 hr Dox Inducible Her3(ss + 4)Gluc 293FRT/TO: Mean IC50.
Text: as §1, with “HER3 signal sequence plus 4 amino” for “full length TNFα (amino”, “(N-[…]-C) (SEQ ID NO: 2).” for “1-233).”, “HER3-ss+4aa/Gaussia” for “TNFα-FL/Gaussia”
as §2

Series [4] deals with IL-2-FL/Gaussia Luciferase. Put plainly: Dox Induced IL2-FL-Gluc Assay. As to conditions: for IC50: 24 hr Dox induction, 293FRT/TO cells, read-out: 24 hr Dox Inducible IL2FLGluc 293FRT/TO: Mean IC50; for 24 hr Dox Inducible IL2FLGluc 293FRT/TO: IL2/PD1: ratio of IL2FLGluc IC50 to PD1ssGluc IC50. The format is cell-based. In short, it runs like this:
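Cells are plated one day ahead, then receive compound dilutions in DMSO/media with doxycycline and incubate at 37° C, 5% CO2. They are Flp-In 293 T-REx cells expressing a full-length IL-2 (amino acids 1-153)–Gaussia luciferase fusion under T-REx control.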

In series [5] the test system is multiple myeloma cell line NCI-H929. As to the kind of experiment: H929 Cell Viability Assay. Type of series: cell-based, human. The note with it: NCI-H929 cells, Celltiter-Glo. In outline: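 Luminescent ATP detection (CellTiter-Glo) after 48 hours of compound exposure measures viability. Cells were plated in RPMI 1640 containing 10% fetal bovine serum and kept at 37° C under 5% CO2.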

For series [6], the system named is multiple myeloma cell line U266B1. As to the kind of experiment: U266 Cell Viability Assay. The note with it: Homo sapiens, U-266, 48 h, U266B1 cells, Celltiter-Glo. The format is cell-based, human. In outline: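 Steps: culture in RPMI 1640 plus 10% FBS and 2 mM glutamine; plate and add compound dilutions; incubate 48 hours at 37° C., 5% CO2; add CellTiter-Glo and quantify luciferase signal.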

Series [7] can be described thus: Liver Microsome Stability Assay (rat). As to conditions: rat liver microsomes, with NADPH, 1.0 uM compound.
Description: (§3) Stability of a compound was assessed in the presence of liver microsomes from various sources—mouse, rat, monkey and human liver microsomes. 1.0 uM compound, 0.4% DMSO in 0.1 M Potassium Phosphate with 1.0 mg/mL liver microsomes, were incubated at 37° C. with or without 1 mM NADPH. The samples were quenched at 0, and 30 minutes.
Series [8] is described as follows: Liver Microsome Stability Assay (mouse). As to conditions: mouse liver microsomes, with NADPH, 1.0 uM compound.
Description: as §3
Series [9] in a line: Liver Microsome Stability Assay (human). As to conditions: human liver microsomes, with NADPH, 1.0 uM compound.
Description: as §3
Series [10] is described as follows: Liver Microsome Stability Assay (monkey). The note with it: monkey liver microsomes, with NADPH, 1.0 uM compound.
Description: as §3
[11] abbreviates: '<=>' given where both are I.A.

Values joined by “and” are separate entries in the source; they are usually repeats but may differ in a detail not shown here. Equal entries are not always repeated. Where two headings read alike, the source gives them in different places.

On to `O=C(CO)Nc1ccc(N2CCC[C@@H]2c2csc(NC(=O)c3cccn3Cc3ccnc(F)c3)n2)cc1` [Compound A141, (R)-1-((2-fluoropyridin-4-yl)methyl)-N-(4-(1-(4-(2-hydroxyacetamido)phenyl)pyrrolidin-2-yl)thiazol-2-yl)-1H-pyrrole-2-carboxamide], for which the IC50 in series [1] was determined as 27.5 nM; in series [2], 497 nM; in series [3], 43.9 nM; in series [4] it was 54 nM. Moreover, the “24 hr Dox Inducible TNFaFLGluc 293FRT/TO: TNF/PD1” value in series [2] is given as 18. Moreover, the “24 hr Dox Inducible IL2FLGluc 293FRT/TO: IL2/PD1” value in series [4] was 2. The EC50 in series [5] (Homo sapiens, NCI-H929, 48 h) was 921 nM; in [6], above 25000 nM. In addition, the “Liver Microsome Stability (Multiple Species): Rat - % Remaining after 30 min w/NADPH” value in [7] was determined as 2.9%. For the same compound, the “Liver Microsome Stability (Multiple Species): Mouse - % Remaining after 30 min w/NADPH” value in [8] is recorded as 0.97%. Further, in series [9], the “Liver Microsome Stability (Multiple Species): Human - % Remaining after 30 min w/NADPH” value was 2.77%. In addition, the “Liver Microsome Stability (Multiple Species): Monkey - % Remaining after 30 min w/NADPH” value in [10] is reported as 0.94%.
Take `CN1c2ccccc2CCC1/C=C/c1csc(NC(=O)c2cccn2Cc2ccncc2)n1` (centres unmarked) [Compound B8, (E)-N-(4-(2-(1-methyl-1,2,3,4-tetrahydroquinolin-2-yl)vinyl)thiazol-2-yl)-1-(pyridin-4-ylmethyl)-1H-pyrrole-2-carboxamide]: the IC50 in series [1] amounted to 260 nM; in [2], 3530 nM; in series [3], 610 nM; in series [4] it was 875 nM. For the same compound, in series [2], the “24 hr Dox Inducible TNFaFLGluc 293FRT/TO: TNF/PD1” value is reported as 13.6. Further, the “24 hr Dox Inducible IL2FLGluc 293FRT/TO: IL2/PD1” value in series [4] was determined as 3.4. For the same compound, the EC50 in [5] (Homo sapiens, NCI-H929, 48 h) was 24200 nM; in series [6], above 25000 nM. In addition, in series [7], the “Liver Microsome Stability (Multiple Species): Rat - % Remaining after 30 min w/NADPH” value came to 7.12%. For the same compound, the “Liver Microsome Stability (Multiple Species): Mouse - % Remaining after 30 min w/NADPH” value in series [8] was determined as 5.24%. Also, the “Liver Microsome Stability (Multiple Species): Human - % Remaining after 30 min w/NADPH” value in series [9] was found to be 0.69%. The “Liver Microsome Stability (Multiple Species): Monkey - % Remaining after 30 min w/NADPH” value in series [10] was 0.47%.
Turning to `O=C(Nc1nc([C@H]2CCCN2c2ccccc2)cs1)c1cccn1Cc1cccc(Br)c1` [Compound C121, (R)-1-(3-bromobenzyl)-N-(4-(1-phenylpyrrolidin-2-yl)thiazol-2-yl)-1H-pyrrole-2-carboxamide], the IC50 in [1] (mean) is 2310 nM; in [2] (mean), above 25000 nM; in series [3] (mean) it was 1210 nM; in series [4] (mean), 1330 nM. Also, in series [2] (setting [11]), the “24 hr Dox Inducible TNFaFLGluc 293FRT/TO: TNF/PD1” value is above 10.8. The “24 hr Dox Inducible IL2FLGluc 293FRT/TO: IL2/PD1” value in series [4] (setting [11]) came out at 0.58. The concentration for a half-maximal effect (EC50) is above 25000 nM in series [5] (Homo sapiens, NCI-H929, 48 h) and above 25000 nM in [6]. Also, in [7], the “Liver Microsome Stability (Multiple Species): Rat - % Remaining after 30 min w/NADPH” value turned out to be 50.2%. Further, in [8], the “Liver Microsome Stability (Multiple Species): Mouse - % Remaining after 30 min w/NADPH” value came to 52.1%. Also, in series [9], the “Liver Microsome Stability (Multiple Species): Human - % Remaining after 30 min w/NADPH” value turned out to be 64.9%. Also, in series [10], the “Liver Microsome Stability (Multiple Species): Monkey - % Remaining after 30 min w/NADPH” value stood at 44.2%.
As to `NC(=O)N1CCC(Oc2ccc(N3CCC[C@@H]3c3csc(NC(=O)c4cccn4Cc4ccnc(F)c4)n3)cc2)CC1` [Compound A135, (R)-4-(4-(2-(2-(1-((2-fluoropyridin-4-yl)methyl)-1H-pyrrole-2-carboxamido)thiazol-4-yl)pyrrolidin-1-yl)phenoxy)piperidine-1-carboxamide], the IC50 in series [1] was 15.2 nM; in series [2], 512 nM; in series [3], 34.2 nM; in [4], 52.5 nM. Moreover, the “24 hr Dox Inducible TNFaFLGluc 293FRT/TO: TNF/PD1” value in series [2] was determined as 33.6. In addition, the “24 hr Dox Inducible IL2FLGluc 293FRT/TO: IL2/PD1” value in series [4] was determined as 3.4. In addition, the EC50 was 692 nM in series [5] (Homo sapiens, NCI-H929, 48 h) and above 25000 nM in series [6]. For the same compound, in series [7], the “Liver Microsome Stability (Multiple Species): Rat - % Remaining after 30 min w/NADPH” value was determined as 57.9%. In series [8], the “Liver Microsome Stability (Multiple Species): Mouse - % Remaining after 30 min w/NADPH” value was determined as 56.5%. Besides, in [9], the “Liver Microsome Stability (Multiple Species): Human - % Remaining after 30 min w/NADPH” value amounted to 67.1%. The “Liver Microsome Stability (Multiple Species): Monkey - % Remaining after 30 min w/NADPH” value in series [10] is 32.1%.
Take `O=C(Nc1nc(CCc2ccccn2)cs1)c1cccn1Cc1ccncc1` [Compound E8, N-(4-(2-(pyridin-2-yl)ethyl)thiazol-2-yl)-1-(pyridin-4-ylmethyl)-1H-pyrrole-2-carboxamide]: the IC50 in series [1] (mean) was 695 nM; in series [2] (mean), above 25000 nM; in series [3] (mean), 4960 nM; in [4] (mean), 5050 nM. The “24 hr Dox Inducible TNFaFLGluc 293FRT/TO: TNF/PD1” value in series [2] (setting [11]) was above 35.9. For the same compound, the “24 hr Dox Inducible IL2FLGluc 293FRT/TO: IL2/PD1” value in series [4] (setting [11]) is given as 7.3. Moreover, the concentration for a half-maximal effect (EC50) in [5] (Homo sapiens, NCI-H929, 48 h) is above 25000 nM; in series [6], above 25000 nM. Moreover, the “Liver Microsome Stability (Multiple Species): Rat - % Remaining after 30 min w/NADPH” value in series [7] is given as 2.86%. Moreover, the “Liver Microsome Stability (Multiple Species): Mouse - % Remaining after 30 min w/NADPH” value in series [8] came out at 0.6%. Further, the “Liver Microsome Stability (Multiple Species): Human - % Remaining after 30 min w/NADPH” value in series [9] is 0.01%. For the same compound, in series [10], the “Liver Microsome Stability (Multiple Species): Monkey - % Remaining after 30 min w/NADPH” value was 0.02%.
Regarding `Cc1cnn(C(C)C)c1/C=C/c1csc(NC(=O)c2cccn2Cc2ccnc(F)c2)n1` [Compound B84, (E)-1-((2-fluoropyridin-4-yl)methyl)-N-(4-(2-(1-isopropyl-4-methyl-1H-pyrazol-5-yl)vinyl)thiazol-2-yl)-1H-pyrrole-2-carboxamide], the IC50 came out at 905 nM in series [1], 1670 nM in [2], 2020 nM in series [3] and 2170 nM in series [4]. Moreover, in series [2], the “24 hr Dox Inducible TNFaFLGluc 293FRT/TO: TNF/PD1” value is 1.84. Moreover, the “24 hr Dox Inducible IL2FLGluc 293FRT/TO: IL2/PD1” value in [4] is 2.4. Also, the EC50 came to 6850 nM in series [5] (Homo sapiens, NCI-H929, 48 h) and 19100 nM in series [6]. In addition, in [8], the “Liver Microsome Stability (Multiple Species): Mouse - % Remaining after 30 min w/NADPH” value is 50.1% and 71.4%. Moreover, the “Liver Microsome Stability (Multiple Species): Human - % Remaining after 30 min w/NADPH” value in series [9] was 10.6% and 16.9%. Besides, the “Liver Microsome Stability (Multiple Species): Monkey - % Remaining after 30 min w/NADPH” value in [10] was 5.77% and 6.74%.
With `CO[C@H](CC#N)Cn1cccc1C(=O)Nc1nc([C@H]2CCCN2c2ccccc2)cs1` [Compound C108, 1-((R)-3-cyano-2-methoxypropyl)-N-(4-((R)-1-phenylpyrrolidin-2-yl)thiazol-2-yl)-1H-pyrrole-2-carboxamide], the IC50 is 2400 nM and 1590 nM in [1] (mean); > 25000 nM and 17900 nM in series [2] (mean); 2410 nM and 2480 nM in series [3] (mean); 4510 nM and 3480 nM in series [4] (mean). Also, the “24 hr Dox Inducible TNFaFLGluc 293FRT/TO: TNF/PD1” value in series [2] (setting [11]) is > 10.4 and 11.3. The “24 hr Dox Inducible IL2FLGluc 293FRT/TO: IL2/PD1” value in series [4] (setting [11]) is 1.9 and 2.2. For the same compound, the EC50 in series [5] (Homo sapiens, NCI-H929, 48 h) was above 23800 nM; in series [5] (48 hr), 20300 nM; in [6], above 25000 nM. Also, the “Liver Microsome Stability (Multiple Species): Rat - % Remaining after 30 min w/NADPH” value in [7] is 3.87% and 7.05%. Besides, in series [9], the “Liver Microsome Stability (Multiple Species): Human - % Remaining after 30 min w/NADPH” value was 8.71% and 7.07%. Further, in series [10], the “Liver Microsome Stability (Multiple Species): Monkey - % Remaining after 30 min w/NADPH” value is 2.55% and 1.11%.

Values taken from patent US20230286973A1, “PROTEIN SECRETION INHIBITORS” (KEZAR LIFE SCIENCES, priority 2020, published 2023).
